Data: publication PMC5107945, “Abscinazole-E3M, a practical inhibitor of abscisic acid 8′-hydroxylase for improving drought tolerance” (Scientific Reports, 2016)

Assays:
[1] = system: Arabidopsis drought tolerance; test: Arabidopsis drought tolerance analysis; format: in vivo; conditions: 50 μM spray, water withheld 12 days, then rehydrated
Description: (§1) The effects of (-)-Abz-[…] were also determined relative to stomatal apertures. Arabidopsis grown in soil pots underwent moderate drought stress under the optimal growth conditions of 22 °C and 60% relative humidity. Under these growth conditions, the leaf surface temperature of the mock-treated controls was 19.5 °C, which was lower than the surrounding atmospheric temperature because of transpirational water loss (Fig. 6a,b)[30]. […] Finally, we examined the effects of (-)-Abz-[…] on drought tolerance under more practical conditions. Three-week-old Arabidopsis were sprayed with an aqueous solution containing 50 μM (-)-Abz-[…]. Water was not supplied for 12 days, and then the plants were rehydrated. […] We also tested the effects of (-)-Abz-[…] on a monocot crop, maize, to evaluate whether (-)-Abz-[…] affected stomatal movement and enhanced ABA response across plant species. […] Thus, the effects of (-)-Abz-[…] were not restricted to the model plant Arabidopsis. Figure 6 Effects of (-)-Abz-[…] on Arabidopsis drought tolerance. (a,b) Three-week-old plants were treated with 50 μM of (-)-Abz-[…] and incubated overnight at 22 °C with 60% relative humidity. Thermal images of plants were obtained using a thermal imaging camera ([…], Nippon Avionics Co., Ltd.), and the average temperatures on leaf surfaces were determined with NS9200 software (n = 5, error bars represent s.d.). […]

rice seedling growth = test: Rice seedling elongation assay; format: in vivo, Oryza sativa L. cv. Nipponbare; conditions: Fig. S5
Description: The effects of (−)-Abz-T compounds were also tested on the early growth of rice seedlings to investigate whether the plant growth-retardant effect derived from UNI declined. […] This was the same trend observed for (−)-Abz-E2B[26]. […] Thus, the growth-retardant effects of (−)-Abz-T compounds may arise from an increase in the endogenous ABA level due to the CYP707A inhibition, although we cannot exclude the possibility that Abz-T compounds may inhibit off-target enzymes other than CYP707A and CYP701A.
Figure 4 Effects of (−)-Abz-T compounds on rice seedling growth compared with the effects of UNI and (−)-Abz-E2B. Seedlings grown on test media containing indicated concentrations of azole inhibitors for 7 d. Scale bars represent 10 mm. Compound 6 is also referred to as Abz-E3M.
For the rice seedling elongation assay, seven seeds (Oryza sativa L. cv. Nipponbare) were sterilised with reagent-grade EtOH for 5 min and washed with running tap water. They were then soaked in distilled water and incubated under continuous illumination at 25 °C for 3 d to germinate. The germinated seeds were then soaked in 2 mL of a test medium in a glass tube and grown under continuous illumination at 25 °C. When the seedlings were 7 d old, the length of the second leaf sheath was measured. All of the assays were conducted at least three times.

maize stomatal movement = test: Thermal imaging and transpirational water loss analysis in maize; format: in vivo; conditions: 10 mL of 100 μM sprayed per plant, overnight
Description: The effects of (-)-Abz-[…] were also determined relative to stomatal apertures. Arabidopsis grown in soil pots underwent moderate drought stress under the optimal growth conditions of 22 °C and 60% relative humidity. Under these growth conditions, the leaf surface temperature of the mock-treated controls was 19.5 °C, which was lower than the surrounding atmospheric temperature because of transpirational water loss (Fig. 6a,b)[30]. […] Finally, we examined the effects of (-)-Abz-[…] on drought tolerance under more practical conditions. Three-week-old Arabidopsis were sprayed with an aqueous solution containing 50 μM (-)-Abz-[…]. Water was not supplied for 12 days, and then the plants were rehydrated. […] We also tested the effects of (-)-Abz-[…] on a monocot crop, maize, to evaluate whether (-)-Abz-[…] affected stomatal movement and enhanced ABA response across plant species. […] Thus, the effects of (-)-Abz-[…] were not restricted to the model plant Arabidopsis. Figure 7 Effects of (-)-Abz-[…] on maize. (a) Thermal images of the leaf surface temperatures of (-)-Abz-[…]-treated maize plants. (b) Leaf surface temperatures of (-)-Abz-[…]-treated maize plants. The stomatal conductance (c) and transpiration rate (d) in (-)-Abz-[…]-treated maize at different light intensities. […] Values are means with s.d. (n = 4 for leaf surface temperature, n = 3 for stomatal conductance and transpiration rate). (e) Effects of (-)-Abz-[…] on endogenous ABA levels. (f) Expression levels of ZmLEA, Zm.12309.1.S and ZmCOR410 after the (-)-Abz-[…] treatment. […] After an overnight incubation, the conductance and transpiration rate were analysed using an LI-6400 (Li-Cor Biosciences), and the leaf surface temperatures were measured using a thermal imaging camera ([…], Nippon Avionics Co., Ltd.) in the glass house. Temperatures on the leaf surfaces were analysed by NS9200 software (Nippon Avionics Co., Ltd.).

endogenous ABA level = test: Endogenous ABA levels in Arabidopsis; format: in vivo; conditions: Arabidopsis four-week-old plants, 50 μM, overnight
Description: as §1

For abscinazole-E3M [(−)-6], the “Drought tolerance and survival” value [1] was “induced significant drought tolerance and increased the survival rate”, the “Effect on rice seedling growth, co-treatment with ABA” value (rice seedling growth; 10 μM compound + 1 μM ABA) was “inhibited rice seedling growth” and the “Effect on rice seedling growth, compound alone” value (rice seedling growth; 10 μM, no ABA) was “did not”. The Leaf surface temperature (maize stomatal movement) was “increased the leaf surface temperature”, the Stomatal conductance (maize stomatal movement) was “suppressed” and the Transpiration rate (maize stomatal movement) was “suppressed”. For the same substance, the “Endogenous ABA content” value (endogenous ABA level) was “significantly increase the ABA content”.
